In experiment [1] the target is T1, Activin receptor type-1B (Homo sapiens) (UniProt P36896).
T1 sequence (whole entry): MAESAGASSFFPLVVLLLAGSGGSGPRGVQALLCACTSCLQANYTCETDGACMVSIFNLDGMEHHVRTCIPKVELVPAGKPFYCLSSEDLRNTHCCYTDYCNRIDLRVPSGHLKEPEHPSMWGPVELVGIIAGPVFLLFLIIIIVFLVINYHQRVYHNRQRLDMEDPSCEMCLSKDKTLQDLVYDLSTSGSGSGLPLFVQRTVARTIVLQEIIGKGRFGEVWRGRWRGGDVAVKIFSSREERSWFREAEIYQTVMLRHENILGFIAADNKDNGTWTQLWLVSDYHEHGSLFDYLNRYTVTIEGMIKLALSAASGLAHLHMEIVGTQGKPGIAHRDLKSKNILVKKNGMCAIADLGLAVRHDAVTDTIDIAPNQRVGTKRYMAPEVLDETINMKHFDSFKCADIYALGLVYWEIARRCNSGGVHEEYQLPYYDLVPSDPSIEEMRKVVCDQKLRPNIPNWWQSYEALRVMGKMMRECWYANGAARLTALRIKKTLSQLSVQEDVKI
In words: Selectivity interaction (KinomeScan (DiscoverX)) EUB0000595a ACVR1B. Conditions: at 10 µM.

Experiment [2] has as its target T2, Serine/threonine-protein kinase 3 (Homo sapiens) (UniProt Q13188).
T2 sequence (whole entry): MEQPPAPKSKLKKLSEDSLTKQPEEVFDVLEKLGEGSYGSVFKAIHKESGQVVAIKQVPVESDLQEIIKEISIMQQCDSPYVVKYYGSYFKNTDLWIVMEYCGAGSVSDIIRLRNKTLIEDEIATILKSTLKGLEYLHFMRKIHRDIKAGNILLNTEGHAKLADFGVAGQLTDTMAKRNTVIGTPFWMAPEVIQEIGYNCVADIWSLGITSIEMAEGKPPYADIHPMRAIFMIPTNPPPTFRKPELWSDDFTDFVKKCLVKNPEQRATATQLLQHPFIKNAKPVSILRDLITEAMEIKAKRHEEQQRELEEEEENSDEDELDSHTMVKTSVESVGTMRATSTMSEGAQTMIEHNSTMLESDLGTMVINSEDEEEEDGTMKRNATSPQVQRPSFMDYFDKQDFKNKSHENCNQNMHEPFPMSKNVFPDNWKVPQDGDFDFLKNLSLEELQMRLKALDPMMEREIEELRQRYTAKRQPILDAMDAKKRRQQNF
In words: Selectivity interaction (ActivX KiNativ screen (ex vivo kinase selectivity in human PBMCs)) EUB0001619a STK3. Conditions: PBMC, at 1 µM. It is filed as cell-based.

Experiment [3] concerns the target 5'-AMP-activated protein kinase catalytic subunit alpha-2 (Homo sapiens) (UniProt P54646). The experiment in a line: Selectivity interaction (ActivX KiNativ screen (ex vivo kinase selectivity in human PBMCs)) EUB0001619a PRKAA2. It is filed as cell-based. Conditions: PBMC, at 1 µM.
Experiment [4] concerns the target Serine/threonine-protein kinase SIK2 (Homo sapiens) (UniProt Q9H0K1). In words: Selectivity interaction (KinomeScan (DiscoverX)) EUB0000607a SIK2. Conditions: at 10 µM.
Experiment [5] addresses T3, Serine/threonine-protein kinase TBK1 (Homo sapiens) (UniProt Q9UHD2).
T3 sequence (whole entry): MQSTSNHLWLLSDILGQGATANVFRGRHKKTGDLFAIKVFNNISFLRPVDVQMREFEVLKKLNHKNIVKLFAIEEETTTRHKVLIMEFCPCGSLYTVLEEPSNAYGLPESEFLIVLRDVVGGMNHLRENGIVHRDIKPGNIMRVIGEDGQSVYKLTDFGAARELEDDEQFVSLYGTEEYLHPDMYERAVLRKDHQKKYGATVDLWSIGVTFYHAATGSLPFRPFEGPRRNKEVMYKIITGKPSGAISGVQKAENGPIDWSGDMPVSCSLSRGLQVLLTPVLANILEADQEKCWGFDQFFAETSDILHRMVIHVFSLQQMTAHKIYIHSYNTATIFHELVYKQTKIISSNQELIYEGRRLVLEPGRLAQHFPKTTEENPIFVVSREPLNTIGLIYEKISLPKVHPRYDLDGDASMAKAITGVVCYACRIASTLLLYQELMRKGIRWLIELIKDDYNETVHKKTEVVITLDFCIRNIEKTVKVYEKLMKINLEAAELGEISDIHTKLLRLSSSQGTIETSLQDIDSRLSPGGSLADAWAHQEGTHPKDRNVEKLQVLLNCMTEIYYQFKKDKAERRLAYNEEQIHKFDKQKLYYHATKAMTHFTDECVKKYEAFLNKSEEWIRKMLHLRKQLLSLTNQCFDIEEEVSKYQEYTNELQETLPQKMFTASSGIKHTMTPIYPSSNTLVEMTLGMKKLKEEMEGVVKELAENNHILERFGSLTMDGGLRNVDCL
In words: Selectivity interaction (Kinase screening (Nanosyn)) EUB0000604a TBK1.

The target of experiment [6] is T4, Tyrosine-protein kinase Tec (Homo sapiens) (UniProt P42680).
T4 sequence (whole entry): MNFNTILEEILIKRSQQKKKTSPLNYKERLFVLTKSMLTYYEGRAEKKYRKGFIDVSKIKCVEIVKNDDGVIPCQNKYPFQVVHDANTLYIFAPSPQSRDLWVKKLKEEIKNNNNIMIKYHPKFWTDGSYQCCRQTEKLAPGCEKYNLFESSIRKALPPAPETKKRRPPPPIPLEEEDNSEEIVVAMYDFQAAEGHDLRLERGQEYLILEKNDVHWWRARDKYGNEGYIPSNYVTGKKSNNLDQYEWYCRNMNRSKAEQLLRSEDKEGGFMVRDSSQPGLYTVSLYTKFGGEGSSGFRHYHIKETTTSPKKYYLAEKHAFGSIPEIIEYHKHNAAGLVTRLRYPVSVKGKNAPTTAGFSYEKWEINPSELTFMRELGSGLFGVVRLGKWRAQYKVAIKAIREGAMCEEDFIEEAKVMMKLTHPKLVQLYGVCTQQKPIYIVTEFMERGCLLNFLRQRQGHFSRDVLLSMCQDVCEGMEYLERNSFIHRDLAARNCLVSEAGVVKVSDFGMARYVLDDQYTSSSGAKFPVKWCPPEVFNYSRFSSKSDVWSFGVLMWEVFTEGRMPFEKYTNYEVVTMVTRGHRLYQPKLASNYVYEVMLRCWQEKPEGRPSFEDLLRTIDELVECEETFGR
In words: Selectivity interaction (ActivX KiNativ screen (kinase selectivity in THP-1 cell lysates)) EUB0000639a TEC. The class given is subcellular. Conditions: lysate, at 0.01 µM.

Experiment [7] deals with Protein kinase C alpha type (Homo sapiens, UniProt P17252). In words: Selectivity interaction (ProQinase) EUB0000171b PRKCA.
Experiment [8] deals with Serine/threonine-protein kinase MRCK beta (Homo sapiens) (UniProt Q9Y5S2). In words: Selectivity interaction (Ambit KINOMEscan and KiNATiv profiling in Jurkat cells) EUB0000090b CDC42BPB. It is filed as cell-based. Conditions: at 1 µM.
Serine/threonine-protein kinase MRCK beta (Homo sapiens), sequence (Q9Y5S2 whole entry): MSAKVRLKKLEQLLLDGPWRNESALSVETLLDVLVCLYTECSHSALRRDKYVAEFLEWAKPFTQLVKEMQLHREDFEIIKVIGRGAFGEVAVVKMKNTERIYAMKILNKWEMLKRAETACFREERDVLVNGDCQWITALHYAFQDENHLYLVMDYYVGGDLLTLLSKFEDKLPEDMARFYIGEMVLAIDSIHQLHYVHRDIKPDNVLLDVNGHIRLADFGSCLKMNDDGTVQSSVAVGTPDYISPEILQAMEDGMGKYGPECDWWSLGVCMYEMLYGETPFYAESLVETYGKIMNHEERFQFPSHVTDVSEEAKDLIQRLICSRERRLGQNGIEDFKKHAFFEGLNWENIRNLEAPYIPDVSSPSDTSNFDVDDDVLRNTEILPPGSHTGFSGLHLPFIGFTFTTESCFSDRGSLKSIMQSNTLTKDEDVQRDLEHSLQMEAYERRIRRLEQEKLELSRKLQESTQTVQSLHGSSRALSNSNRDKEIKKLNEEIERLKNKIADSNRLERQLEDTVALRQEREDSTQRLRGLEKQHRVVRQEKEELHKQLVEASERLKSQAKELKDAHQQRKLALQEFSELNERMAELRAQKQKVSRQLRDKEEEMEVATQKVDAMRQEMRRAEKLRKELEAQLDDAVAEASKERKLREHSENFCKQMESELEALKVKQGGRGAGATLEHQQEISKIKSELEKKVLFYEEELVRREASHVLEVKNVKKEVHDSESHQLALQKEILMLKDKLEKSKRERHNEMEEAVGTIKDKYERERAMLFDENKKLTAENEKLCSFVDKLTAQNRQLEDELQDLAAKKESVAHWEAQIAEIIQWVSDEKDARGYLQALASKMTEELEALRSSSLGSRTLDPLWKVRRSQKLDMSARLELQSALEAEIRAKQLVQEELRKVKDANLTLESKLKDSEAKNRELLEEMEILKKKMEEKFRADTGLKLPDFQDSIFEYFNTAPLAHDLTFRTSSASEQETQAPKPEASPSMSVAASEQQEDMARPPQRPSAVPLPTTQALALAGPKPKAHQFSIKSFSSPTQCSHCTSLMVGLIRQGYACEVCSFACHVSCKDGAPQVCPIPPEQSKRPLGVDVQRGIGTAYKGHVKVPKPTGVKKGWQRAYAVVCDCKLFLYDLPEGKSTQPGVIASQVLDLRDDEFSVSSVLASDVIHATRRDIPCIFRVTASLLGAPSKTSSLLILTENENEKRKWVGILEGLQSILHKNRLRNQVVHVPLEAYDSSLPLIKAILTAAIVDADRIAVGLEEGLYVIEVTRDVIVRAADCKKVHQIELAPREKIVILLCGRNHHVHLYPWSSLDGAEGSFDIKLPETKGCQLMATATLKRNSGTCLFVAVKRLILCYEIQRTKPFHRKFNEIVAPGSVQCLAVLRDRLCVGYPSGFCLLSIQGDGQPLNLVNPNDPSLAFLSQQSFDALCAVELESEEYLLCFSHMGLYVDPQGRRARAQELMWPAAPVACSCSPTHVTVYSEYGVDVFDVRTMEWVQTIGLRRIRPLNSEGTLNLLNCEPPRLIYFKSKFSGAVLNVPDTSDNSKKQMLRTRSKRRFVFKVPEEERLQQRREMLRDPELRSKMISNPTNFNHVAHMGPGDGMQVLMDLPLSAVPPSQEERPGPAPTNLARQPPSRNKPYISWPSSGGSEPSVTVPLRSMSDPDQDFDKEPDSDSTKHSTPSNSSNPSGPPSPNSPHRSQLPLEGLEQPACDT
Experiment [9] deals with Tyrosine-protein kinase Srms (Homo sapiens) (UniProt Q9H3Y6). In words: Selectivity interaction (KinomeScan (DiscoverX)) EUB0001049a SRMS. Conditions: at 1 µM.
Tyrosine-protein kinase Srms (Homo sapiens), sequence (Q9H3Y6 whole entry): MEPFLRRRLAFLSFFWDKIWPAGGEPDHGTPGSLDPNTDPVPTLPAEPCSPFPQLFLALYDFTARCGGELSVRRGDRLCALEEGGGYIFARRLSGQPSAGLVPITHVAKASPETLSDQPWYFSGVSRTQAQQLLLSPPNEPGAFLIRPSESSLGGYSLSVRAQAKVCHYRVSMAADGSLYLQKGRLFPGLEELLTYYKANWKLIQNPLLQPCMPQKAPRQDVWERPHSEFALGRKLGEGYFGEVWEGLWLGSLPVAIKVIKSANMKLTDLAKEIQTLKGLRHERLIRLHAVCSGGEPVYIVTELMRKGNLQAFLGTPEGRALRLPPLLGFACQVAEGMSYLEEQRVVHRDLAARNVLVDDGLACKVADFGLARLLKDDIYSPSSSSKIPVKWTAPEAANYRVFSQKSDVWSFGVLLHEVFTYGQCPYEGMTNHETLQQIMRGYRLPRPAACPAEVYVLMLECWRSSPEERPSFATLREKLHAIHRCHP
Experiment [10] addresses Muscarinic acetylcholine receptor M2 (Homo sapiens, UniProt P08172). The experiment in a line: Selectivity interaction (Muscarinic M2 Calcium flux assay, agonist and antagonist mode ) EUB0000877a CHRM2. (A change in cytosolic calcium serves as a functional read-out for many receptors and channels.)

The values that follow come from ChEMBL document CHEMBL5465560, “Selectivity Literature for EUbOPEN Chemogenomic Library” (2024).

For orientation: IC50 means the concentration needed to halve the response being measured.

Serine/threonine-protein kinase SIK2 (Homo sapiens), sequence (Q9H0K1 whole entry, looked up): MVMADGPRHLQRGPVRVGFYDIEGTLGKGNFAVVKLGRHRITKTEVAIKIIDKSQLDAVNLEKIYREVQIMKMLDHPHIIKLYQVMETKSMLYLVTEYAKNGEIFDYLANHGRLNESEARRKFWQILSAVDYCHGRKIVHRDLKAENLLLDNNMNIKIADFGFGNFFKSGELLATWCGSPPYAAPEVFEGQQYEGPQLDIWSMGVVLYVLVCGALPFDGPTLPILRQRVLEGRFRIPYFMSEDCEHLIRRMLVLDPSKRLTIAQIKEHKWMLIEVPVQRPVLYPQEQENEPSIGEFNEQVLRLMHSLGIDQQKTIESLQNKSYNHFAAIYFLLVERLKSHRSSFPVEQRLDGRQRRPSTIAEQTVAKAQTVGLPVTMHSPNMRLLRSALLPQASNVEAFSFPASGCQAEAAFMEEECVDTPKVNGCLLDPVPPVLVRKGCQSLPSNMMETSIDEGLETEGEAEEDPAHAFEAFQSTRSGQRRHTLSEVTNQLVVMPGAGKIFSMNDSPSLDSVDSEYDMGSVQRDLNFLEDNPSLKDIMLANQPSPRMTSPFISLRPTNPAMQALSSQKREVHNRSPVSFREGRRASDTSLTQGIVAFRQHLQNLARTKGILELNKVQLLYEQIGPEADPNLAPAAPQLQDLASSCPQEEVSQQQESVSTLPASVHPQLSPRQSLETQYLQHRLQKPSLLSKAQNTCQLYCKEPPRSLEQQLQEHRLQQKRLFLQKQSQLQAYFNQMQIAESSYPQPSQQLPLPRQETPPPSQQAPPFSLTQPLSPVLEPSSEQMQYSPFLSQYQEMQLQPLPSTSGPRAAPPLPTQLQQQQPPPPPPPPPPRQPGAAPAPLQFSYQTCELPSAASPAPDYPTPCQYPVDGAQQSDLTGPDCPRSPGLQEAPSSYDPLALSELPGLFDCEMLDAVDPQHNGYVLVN
5'-AMP-activated protein kinase catalytic subunit alpha-2 (Homo sapiens), sequence (P54646 whole entry, looked up): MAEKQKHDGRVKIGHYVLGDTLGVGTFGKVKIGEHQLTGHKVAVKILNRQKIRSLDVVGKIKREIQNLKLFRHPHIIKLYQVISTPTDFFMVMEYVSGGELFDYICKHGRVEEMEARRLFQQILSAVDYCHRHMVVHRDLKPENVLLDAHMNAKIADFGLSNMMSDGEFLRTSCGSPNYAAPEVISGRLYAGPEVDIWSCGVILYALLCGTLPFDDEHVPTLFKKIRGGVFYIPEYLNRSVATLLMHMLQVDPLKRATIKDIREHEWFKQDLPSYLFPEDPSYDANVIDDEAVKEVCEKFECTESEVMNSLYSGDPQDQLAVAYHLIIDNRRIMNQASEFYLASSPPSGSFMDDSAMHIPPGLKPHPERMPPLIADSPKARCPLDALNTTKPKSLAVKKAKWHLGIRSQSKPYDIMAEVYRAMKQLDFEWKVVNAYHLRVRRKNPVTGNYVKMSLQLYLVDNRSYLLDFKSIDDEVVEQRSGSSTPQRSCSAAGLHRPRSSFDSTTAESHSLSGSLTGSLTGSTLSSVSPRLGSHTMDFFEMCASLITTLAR
Muscarinic acetylcholine receptor M2, sequence (P08172 whole entry): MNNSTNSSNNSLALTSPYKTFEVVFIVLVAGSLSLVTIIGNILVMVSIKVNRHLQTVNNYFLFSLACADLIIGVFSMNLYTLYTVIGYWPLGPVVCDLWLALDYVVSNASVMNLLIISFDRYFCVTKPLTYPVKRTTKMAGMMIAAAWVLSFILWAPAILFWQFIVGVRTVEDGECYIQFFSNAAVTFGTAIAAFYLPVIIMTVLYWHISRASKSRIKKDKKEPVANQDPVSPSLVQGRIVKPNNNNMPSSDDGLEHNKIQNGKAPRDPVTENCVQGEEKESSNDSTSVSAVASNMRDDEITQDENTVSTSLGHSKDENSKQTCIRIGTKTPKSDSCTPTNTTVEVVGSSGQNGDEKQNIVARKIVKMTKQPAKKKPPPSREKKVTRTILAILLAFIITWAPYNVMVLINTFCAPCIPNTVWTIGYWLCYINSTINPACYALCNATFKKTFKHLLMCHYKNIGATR

Regarding `COCC(=O)NC/C=C/c1ccc2ncnc(Nc3ccc(Oc4ccc(C)nc4)c(C)c3)c2c1` [CP-724714], the % of control in experiment [1] came out at 100%.
On to `N#Cc1cccc(-c2c[nH]c3ncnc(N4CCOCC4)c23)c1`, for which the % of inhibition in [2] came to 71%; in experiment [3], 33%.
Compound `CNC(=O)Nc1ccc(-c2nc(N3CC4CCC(C3)O4)c3cnn(C4CCC5(CC4)OCCO5)c3n2)cc1` came in with a % of control in [4] of 97%.
`Cc1cnc(Nc2ccc(F)cc2Cl)nc1-c1c[nH]c(C(=O)N[C@H](CO)c2cccc(Cl)c2)c1`: the % of inhibition in experiment [5] was 3%.
Turning to `CC[C@@H]1[C@H](F)C(=O)N[C@@H]1COc1nccc2cc(C(N)=O)c(OC)cc12` [ZIMLOVISERTIB], in [6], the % of inhibition was -72.2%.
With `C=CC(=O)Nc1cccc(C(=O)Nc2ccc(Nc3cc(-c4[nH]c(SC)nc4C)ccn3)cc2)c1`, the % of control in experiment [7] (at 1 µM) was found to be 102%; in [7] (at 5 µM) it was 80%.
Turning to `CN(C)C/C=C/C(=O)Nc1ccc(C(=O)N2CCCC(Nc3ncc(Cl)c(-c4c[nH]c5ccccc45)n3)C2)cc1` (stereo unspecified), the % of control in [8] amounted to 96%.
For `COc1cc(Nc2nc(C)cc(-c3cnn4nc(OC)ccc34)n2)cc(C(F)(F)F)c1`, in [9], the % of control amounted to 66%.
Turning to `CCC(=O)N1CC[C@H](Nc2ncnc3c2CN(c2cnc(OC)c(C(F)(F)F)c2)CC3)C1` [LENIOLISIB], in experiment [10], the IC50 was over 30 µM.
